Data as given in ChEMBL document CHEMBL2331441, “Phosphodiesterase inhibitors. Part 5: hybrid PDE3/4 inhibitors as dual bronchorelaxant/anti-inflammatory agents for inhaled administration” (Bioorg Med Chem Lett, 2013).

Tests used:
[1] = molecular target: T1, 3',5'-cyclic-AMP phosphodiesterase 4B (Homo sapiens, UniProt Q07343); assay: Inhibition of PDE4B (unknown origin) by radiochemical assay
[2] = molecular target: cGMP-inhibited 3',5'-cyclic phosphodiesterase 3A (Homo sapiens, UniProt Q14432); assay: Inhibition of PDE3A (unknown origin) by radiochemical assay
Sequence of cGMP-inhibited 3',5'-cyclic phosphodiesterase 3A (Q14432 whole entry): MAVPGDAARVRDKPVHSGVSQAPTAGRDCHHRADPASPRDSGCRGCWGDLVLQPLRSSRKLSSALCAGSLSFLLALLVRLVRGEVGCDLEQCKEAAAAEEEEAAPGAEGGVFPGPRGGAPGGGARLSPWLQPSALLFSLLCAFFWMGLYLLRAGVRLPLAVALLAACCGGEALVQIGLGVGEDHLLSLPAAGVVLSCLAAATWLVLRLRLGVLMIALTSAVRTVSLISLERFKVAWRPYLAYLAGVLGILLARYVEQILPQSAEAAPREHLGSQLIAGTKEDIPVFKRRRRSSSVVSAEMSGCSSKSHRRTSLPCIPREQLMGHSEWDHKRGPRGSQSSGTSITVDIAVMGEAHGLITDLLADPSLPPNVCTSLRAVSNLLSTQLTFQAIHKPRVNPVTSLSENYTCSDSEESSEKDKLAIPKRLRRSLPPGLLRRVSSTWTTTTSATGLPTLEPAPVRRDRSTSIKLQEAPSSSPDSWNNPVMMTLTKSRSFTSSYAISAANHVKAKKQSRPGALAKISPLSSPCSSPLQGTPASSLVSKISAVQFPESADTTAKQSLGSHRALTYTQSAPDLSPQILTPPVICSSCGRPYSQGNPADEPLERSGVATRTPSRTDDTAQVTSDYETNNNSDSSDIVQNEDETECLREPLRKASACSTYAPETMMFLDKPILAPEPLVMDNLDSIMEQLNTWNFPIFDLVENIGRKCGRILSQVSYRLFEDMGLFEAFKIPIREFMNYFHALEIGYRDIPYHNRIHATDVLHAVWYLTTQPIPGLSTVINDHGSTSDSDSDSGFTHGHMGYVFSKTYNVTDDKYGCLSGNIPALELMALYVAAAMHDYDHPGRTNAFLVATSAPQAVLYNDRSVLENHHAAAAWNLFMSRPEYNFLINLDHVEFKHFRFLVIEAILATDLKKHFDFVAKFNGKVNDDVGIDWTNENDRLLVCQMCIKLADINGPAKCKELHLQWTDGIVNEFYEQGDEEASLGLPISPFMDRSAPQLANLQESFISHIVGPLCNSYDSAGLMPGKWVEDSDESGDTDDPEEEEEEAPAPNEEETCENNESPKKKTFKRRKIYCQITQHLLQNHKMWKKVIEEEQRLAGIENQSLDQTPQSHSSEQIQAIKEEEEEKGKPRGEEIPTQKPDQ

[3] = molecular target: T1, 3',5'-cyclic-AMP phosphodiesterase 4B; assay: Ratio of IC50 for KCA-1450 to compound IC50 for PDE4B (unknown origin) by radiochemical assay
Cavia porcellus = assay: Bronchodilatory activity in guinea pig assessed as inhibition of histamine-induced bronchoconstriction at 0.1 mg/kg, iv; format: functional
Rattus norvegicus = assay: Inhibition of LPS-induced leukocyte influx into rat lung at 100 ug/kg administered intratracheally 3 hrs prior LPS challenge; format: functional; settings: inhaled or nasal
Homo sapiens = species on record: Homo sapiens; assay: Selectivity ratio of IC50 for PDE3A (unknown origin) to IC50 for PDE4B (unknown origin)

T1 sequence (Q07343 whole entry): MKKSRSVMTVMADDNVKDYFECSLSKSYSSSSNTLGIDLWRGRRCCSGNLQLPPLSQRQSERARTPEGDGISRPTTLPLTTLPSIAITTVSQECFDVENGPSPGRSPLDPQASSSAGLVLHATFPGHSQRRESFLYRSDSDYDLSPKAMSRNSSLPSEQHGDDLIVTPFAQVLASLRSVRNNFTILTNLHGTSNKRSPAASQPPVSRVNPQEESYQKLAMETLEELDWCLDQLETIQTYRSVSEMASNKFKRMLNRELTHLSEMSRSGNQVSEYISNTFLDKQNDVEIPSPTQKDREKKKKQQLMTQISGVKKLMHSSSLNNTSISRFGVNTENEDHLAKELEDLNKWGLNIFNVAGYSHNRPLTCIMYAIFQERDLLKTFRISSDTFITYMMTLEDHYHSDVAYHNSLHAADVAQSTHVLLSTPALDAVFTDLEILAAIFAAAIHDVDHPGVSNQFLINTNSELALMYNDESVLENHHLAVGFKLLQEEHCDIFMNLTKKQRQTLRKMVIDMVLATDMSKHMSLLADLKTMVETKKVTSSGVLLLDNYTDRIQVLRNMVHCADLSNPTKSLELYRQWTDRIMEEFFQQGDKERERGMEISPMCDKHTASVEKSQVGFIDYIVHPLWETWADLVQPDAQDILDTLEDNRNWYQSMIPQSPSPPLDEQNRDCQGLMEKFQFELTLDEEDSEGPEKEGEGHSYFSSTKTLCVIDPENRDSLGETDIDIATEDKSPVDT

| SMILES | IC50 [1] [nM] | IC50 [2] [nM] | Ratio IC50 [3] | Ratio IC50 (Homo sapiens) | inhibition in vivo at 0.1 mg/kg (Cavia porcellus) [%] | inhibition in vivo at 0.1 mg/kg (Rattus norvegicus) [%] |
| --- | --- | --- | --- | --- | --- | --- |
| COc1ccc(C2=NN(CCCCOc3ccc(C4=NNC(=O)CC4)c(F)c3F)C(=O)CC2C)c2cc(C(F)(F)F)nn12 (stereo not given) | 2.2 | 5.1 | – | – | – | – |
| COc1ccc(C2=NN(CCCCOc3ccc(C4=NNC(=O)C4(C)C)c(F)c3F)C(=O)CC2C)c2cc(C(F)(F)F)nn12 (stereo not given) | 3.1 | 15 | – | – | – | – |
| COc1ccc(C2=NN(CCCCOc3ccc(C4=NNC(=O)C4(C)C)c(F)c3F)C(=O)C2(C)C)c2sc(C(F)(F)F)nc12 | 0.38 | 63 | – | – | 36 | – |
| COc1ccc(C2=NN(CCCCOc3ccc(C4=NNC(=O)C4(C)C)cc3F)C(=O)CC2C)c2cc(C(F)(F)F)nn12 (stereo not given) | 1.4 | 1520 | – | – | – | – |
| COc1ccc(C2=NN(CCCCOc3ccc(C4=NNC(=O)CC4)c(F)c3F)C(=O)C2(C)C)n2cc(C(F)(F)F)nc12 | 6.7 | 5 | – | – | 87 | 56 |
| COc1ccc(C2=NN(CCCCOc3cccc(C4=NNC(=O)C4(C)C)c3)C(=O)CC2C)c2cc(C(F)(F)F)nn12 (stereo not given) | 0.064 | 1730 | – | 10000 | – | – |
| COc1ccc(C2=NN(CCCCOc3ccc(C4=NNC(=O)CC4)c(F)c3F)C(=O)C2(C)C)c2sc(C(F)(F)F)nc12 | 0.77 | 6.9 | – | – | 96 | 51 |
| COc1ccc(C2=NN(CCCCOc3ccc(C4=NNC(=O)C4(C)C)c(F)c3)C(=O)CC2C)c2cc(C(F)(F)F)nn12 (stereo not given) | 0.3 | 58 | – | – | – | – |
| CCc1cc2c(-c3ccc(=O)n(CCCCOc4ccc(C5=NNC(=O)CC5C)cc4)n3)ccc(OC)n2n1 (stereo not given) | 20 | 2.7 | – | – | 71 | – |
| COc1ccc(C2=NN(CCCCOc3ccc(C4=NNC(=O)C4(C)C)c(F)c3F)C(=O)C2(C)C)n2cc(C(F)(F)F)nc12 | 3.2 | 40 | – | – | 76 | – |
| CCc1cc2c(C3=NN(CCCCOc4ccc(C5=NNC(=O)CC5C)cc4)C(=O)C3(C)C)ccc(OC)n2n1 (stereo not given) | 0.6 | 1.7 | – | – | 92 | – |
| COc1ccc(C2=NNC(=O)CC2C)c2cc(C(F)(F)F)nn12 (racemic) | 70 | 2380 | – | – | – | – |
| CCc1cc2c(C3=NN(CCCCOc4ccc(C5=NNC(=O)CC5C)cc4)C(=O)CC3)ccc(OC)n2n1 (stereo not given) | 2.7 | 0.27 | – | – | 28 | – |
| COc1ccc(C2=NN(CCCCOc3ccc(-c4n[nH]c(=O)cc4C)cc3)C(=O)CC2C)c2cc(C(F)(F)F)nn12 (stereo not given) | 6 | 40000 | – | – | – | – |
| COc1ccc(C2=NNC(=O)C[C@@H]2C)c2cc(C(F)(F)F)nn12 | 42 | 360 | – | – | – | – |
| COc1ccc(C2=NN(CCCCOc3ccc(C4=NNC(=O)C4(C)C)cc3)C(=O)CC2C)c2cc(C(F)(F)F)nn12 (stereo not given) | 0.5 | 270 | – | – | – | – |
| COc1ccc(C2=NN(CCCCOc3ccc(-c4ccc(=O)[nH]n4)cc3)C(=O)CC2C)c2cc(C(F)(F)F)nn12 (stereo not given) | 20 | 38000 | – | – | – | – |

The next lines start with results.

| IC50 [1] [nM] | IC50 [2] [nM] | Ratio IC50 [3] | Ratio IC50 (Homo sapiens) | SMILES | inhibition in vivo at 0.1 mg/kg (Cavia porcellus) [%] | inhibition in vivo at 0.1 mg/kg (Rattus norvegicus) [%] |
| --- | --- | --- | --- | --- | --- | --- |
| 0.66 | 130 | 23 | – | COc1ccc(C2=NN(CCOc3ccc(C4=NNC(=O)CC4C)cc3)C(=O)CC2C)c2cc(C(F)(F)F)nn12 (stereo not given) | – | – |
| 0.2 | 72 | 23 | – | COc1ccc(C2=NN(CCCCCOc3ccc(C4=NNC(=O)CC4C)cc3)C(=O)CC2C)c2cc(C(F)(F)F)nn12 (stereo not given) | – | – |
| 1.7 | 1.2 | – | – | CCc1cc2c(C3=NN(CCCCOc4ccc(C5=NNC(=O)CC5C)cc4)C(=O)CC3C)ccc(OC)n2n1 (stereo not given) | 96 | – |
| 0.1 | 360 | – | – | COc1ccc(C2=NN(CCCCOc3ccc(C4=NNC(=O)CC4)cc3)C(=O)CC2C)c2cc(C(F)(F)F)nn12 (stereo not given) | – | – |
| 0.5 | 590 | – | – | COc1ccc(C2=NN(CCCCOc3cccc(C4=NNC(=O)CC4C)c3)C(=O)CC2C)c2cc(C(F)(F)F)nn12 (stereo not given) | – | – |
| 3 | 140 | 23 | – | COc1ccc(C2=NN(CCCOc3ccc(C4=NNC(=O)CC4C)cc3)C(=O)CC2C)c2cc(C(F)(F)F)nn12 (stereo not given) | – | – |
| 0.3 | 15 | 23 | – | COc1ccc(C2=NN(CCCCOc3ccc(C4=NNC(=O)CC4C)cc3)C(=O)CC2C)c2cc(C(F)(F)F)nn12 (stereo not given) | – | – |
| 5.9 | 11 | – | – | CCc1cc2c(C3=NN(CCCOc4ccc(C5=NNC(=O)CC5C)cc4)C(=O)CC3C)ccc(OC)n2n1 (stereo not given) | – | – |
